In experiment [1] the test system is NSCLC, pancreatic and colon cancer cell lines. Nature of the experiment: Cell viability, M13-C06 and erlotinib alone or combined. In kind it is cell-based. Here is the method: M13-C06 (human IgG4 Pagly anti-IGF-1R antibody) is currently in clinical development for multiple solid tumors. We evaluated the effect of anti-IGF-1R M13-C06 in combination with erlotinib (American Custom Chemicals Corp., cat# 183319-69-9 (San Diego, Calif.)) on the growth (proliferation) of a panel of NSCLC, pancreatic and colon cancer cell lines. Cells were plated at 5000 cells per well in 96-well tissue culture plates in RPMI-1640 (containing 10% fetal bovine serum (FBS, Hyclone cat# Sh30071.03)) and then treated with M13-C06 or erlotinib as single agents or in combination at 1:3 serial dilutions with a starting concentration of 200 nM and 20 microM for M13-C06 and for erlotinib respectively.

Experiment [2] relates to AKT and MAPK phosphorylation in NSCLC cell lines. The experiment is described as follows: Western blot of AKT and MAPK phosphorylation, M13-C06 and erlotinib. The experiment is classed as cell-based. As to conditions: 10 microM erlotinib, 3 hours. Here is the method:
We set to determine the molecular mechanisms underlying the observed enhanced anti-tumor effect of combining erlotinib and M13-C06 in NSCLC cell lines. AKT and MAPK activation status was evaluated after treatment with erlotinib and M13-C06 as single agents or in combination, since AKT and MAPK are common downstream signaling targets of IGF-1R and EGFR. Tumor cell lines were plated onto 6-well plates at 1.2×10^6 per well, in RPMI+10% FBS media, and allowed to adhere overnight. The following day, media from wells was removed and replaced with 100 nM M13-C06 or IDEC151 (human IgG4 isotype control antibody) in combination with either media (single agent control) or 10 microM erlotinib in media. Assay plates were incubated in a 37° C., 5% C02 humidified incubator for 3 hours, and cellular proteins were extracted in cell lysis buffer (Cell Signaling Technology, cat# 9803 (Danvers, Mass. USA)). Protein concentrations in lysates were measured using a BCA protein assay kit (Pierce, cat# 23227 (Pierce Biotechnology, Inc., Rockford, Ill.)) and equal amount of proteins were run on a NUPAGE 4-12% Tris-Bis gel, and transferred to a nitrocellulose membrane (0.45 μm pore). Phosphorylation was detected by treatment with antibodies specific for phospho-AKT, total AKT, phospho-MAPK, or total MAPK (Cell Signaling technology, cat #9271, 9272, 9101, 9102), followed by treatment with anti-Rabbit-IgG-HRP (Southern Biotech. cat# 4050-05). Blots were developed with Supersignal Western Substrate Kit (Pierce, cat#34095) and the chemiluminescent image was captured on a BioRad Max2 imager. […] In general, the effects of M13-C06 and erlotinib on downstream signaling molecules AKT and MAPK correlate with their effects on cell growth as shown in FIG. 41.

Experiment [3] deals with NSCLC, pancreatic, and colon cancer cell lines. Nature of the experiment: Cell viability, M13-C06 and PD0325901 alone or combined. In kind it is cell-based. As to conditions: PD0325901 single agent. Here is the method:
Cells were plated at 5000 cells/well in 96-well tissue culture plates in RPMI-1640 containing 10% fetal bovine serum, then treated with M13-C06 and PD0325901 as single agents or in combination at 1:3 serial dilutions with a starting concentration of 200 nM for M13-C06 and 10 microM for PD0325901. Cell viability was determined three or five days later by measuring ATP levels with CELL TITER GLO™ reagent from Promega.

In experiment [4] the test system is AKT and S6K signaling in sarcoma and lung tumor cell lines. The experiment is described as follows: Western blot of AKT and S6K phosphorylation, M13-C06 and rapamycin. In kind it is cell-based. As to conditions: 100 nM rapamycin, 3 hours. Here is the method: It has been reported that rapamycin inhibition of mTOR induces AKT activation through S6K (S6 kinase) and IGF-1R/IRS-1 (Insulin Receptor Substrate-1) dependent feedback loop (O'Reilly, et al., Cancer Research, vol. 66, p. 1500-1508 (2006)). We therefore examined the effect of M13-C06 and rapamycin on AKT and S6K signaling in selected sarcoma and lung tumor cell lines in which M13-C06 enhanced the anti-tumor activity of rapamycin. Cells were plated onto 12 well plates at 6×10^5 per well, in McCoy's 5A medium plus 15% FBS for sarcoma and RPMI-1640 plus 10% FBS for NSCLC cell lines, and allowed to adhere overnight. The following day, media from wells was removed and replaced with 100 nM M13-C06 or IDEC151 in combination with either media (single agent control) or 100 nM rapamycin in media. Assay plates were incubated in a 37° C., 5% CO2 humidified incubator for 3 hours, cells were lysed in Cell Signaling Lysis Buffer (Cell Signal Technologies, #9803), and the lysates were normalized by protein concentration and run on a NUPAGE 4-12% Tris-Bis gel, then transferred to a nitrocellulose membrane. Phosphorylation status of AKT and S6K was detected by treatment with antibodies specific for phospho-AKT, total AKT phospho-S6K, or total S6K (Cell Signaling technology, cat# 2215, 2217), then by treatment with anti-Rabbit-IgG-HRP (Cell Signaling Biotechnology, cat# 7071). […]

Experiment [5] relates to NSCLC, pancreatic, colon cancer and sarcoma cell lines. The experiment is described as follows: Cell viability, M13-C06 and rapamycin alone or combined. In kind it is cell-based. Here is the method: For cell growth assays, cells were plated at 5000 cells per well in 96-well tissue culture plates in RPMI-1640 containing 10% fetal bovine serum (for most cell lines) or McCoy's 5A plus 15% FBS (for sarcoma cell lines). Cells were treated with M13-C06 and rapamycin (American Custom Chemicals Corp. cat# 53123-88-9) as a single agent or in combination at 1:3 serial dilutions with a starting concentration of 200 nM for M13-C06 and 100 nM or 1 microM for rapamycin for three or five days. Cell viability was determined by measuring ATP levels with CELL TITER GLO™ reagent.

In experiment [6] the test system is IGF-1R-Fc. Nature of the experiment: Surface plasmon resonance analysis of the IGF-1R-Fc mutant library (46 mutants). The experiment is classed as binding, human. As to conditions: for C06 binding: M13-C06 Fab; for C03 binding: M14-C03 Fab; for G11 binding: M14-G11 Fab. Here is the method: Surface plasmon resonance (SPR) experiments were performed on a Biacore 3000 instrument set to 25° C. Both mIGF-1R-Fc and hIGF-1R-Fc bind with high apparent affinity to research grade CM5 sensorchip surfaces containing immobilized M13-C06, M14-C03, and M14-G11. The antibody sensorchip surfaces were prepared by injecting each antibody (diluted 100 μg/mL in 10 mM Acetate, pH 4.0) over EDC/NHS-activated sensorchip surfaces according to the standard protocol of the manufacturer. The ability of mIGF-1R-Fc to bind the antibody surfaces was the result of high apparent avidity of the protein. Both hIGF-1R-Fc and mIGF-1R-Fc proteins oligomerize due to the incorporation of two separate homodimeric regions (IGF-1R and IgG1-Fc). To distinguish between actual high affinity antibody binding to hIGF-1R-Fc and low affinity antibody binding to mIGF-1R-Fc, the receptor-Fc fusions were captured on the M13-C06 and M14-G11 sensorchip surfaces followed by an additional injection of antibody (αIR3 and P1E2) or antibody Fab (M13-C06, M14-C03, and M14-G11). […] After, completion of the receptor-Fc loading step, flow rates were elevated to 5 μl/min. Solutions containing M13-C06 Fab or αIR3 antibody at 10 nM, 3 nM, or 1 nM or M14-C03 Fab, M14-G11 Fab, or P1E2 antibody at 30 nM, 10 nM, or 3 nM were injected (50 μL) subsequent to the loading of each receptor-Fc construct. Dissociation was measured for 7 minutes after the antibody injections were complete. Finally, the flow rate was elevated to 30 μL/min and the chip surfaces were regenerated by 2×10 μL injections of 0.1 M glycine, pH 2.
M13-C06, M14-C03, M14-G11, P1E2 and αIR3 were assayed for their ability to interact with each of the mutant IGF-1R-Fc fusion constructs using surface plasmon resonance (Biacore). To remove the uncertain concentrations of the IGF-1R-Fc fusion constructs as a variable in the assay, each mutant construct was captured on a research grade CM5 chip containing ˜10,000 RU immobilized […], M14-C03, and M14-G11 antibody. To enhance our ability to visualize attenuations in antibody binding to the captured mutant IGF-1R constructs, we utilized enzymatically derived M13-C06, M14-C03, and M14-G11 antigen binding fragments (Fabs).

Experiment [7] relates to IGF-1R. The experiment is described as follows: Biacore analysis of the IGF-1R-Fc mutant library: M13-C06 Fab binding to receptor-Fc captured on M13-C06 chip. More on the design: species or system human. As to conditions: M13-C06 Fab binding to mutant hIGF-1R-Fc captured on M13-C06 chip. An excerpt: Both mIGF-1R-Fc and hIGF-1R-Fc bind with high apparent affinity to the M13-C06, M14-C03, and M14-G11 sensorchip surfaces described above due to their highly multivalent nature induced by the incorporation of two separate homodimeric regions (IGF-1R and IgG1-Fc). To distinguish between the actual high affinity binding hIGF-1R-Fc to M13-C06 and the low affinity binding of mIGF-1R-Fc to M13-C06, the receptor-Fc fusions were captured on the M13-C06 sensorchip surface followed by an additional soluble M13-C06 Fab binding event. […] After, completion of the receptor-Fc loading step, flow rates were elevated to 5 μl/min. 10 nM, […], and 1 nM M13-C06 Fab concentrations were injected (50 μL) subsequent to the loading of each receptor-Fc construct. At the end of each sensorgram, the flow rate was elevated to 30 μl/min and the chip surface was regenerated by 2×10 μL injections of 0.1 M glycine, pH 2.

`C#Cc1cccc(Nc2ncnc3cc(OCCOC)c(OCCOC)cc23)c1` [erlotinib, N-(3-ethynylphenyl)-6,7-bis(2-methoxyethoxy)quinazolin-4-amine, reference compound]: the cell growth entry in experiment [1] (erlotinib single agent, 7 NSCLC cell lines, five days) is “substantially inhibited the growth of only H322M and H1650 cell lines”; in experiment [1] (erlotinib, 5 colon cancer cell lines), “none of 5 colon cancer cell lines showed substantial growth inhibition”. The “phosphorylation of MAPK” value in experiment [2] (A549 cells) is “partial inhibition of MAPK phosphorylation”; in experiment [2] (H322M cells) it was “completely abolished detectable phosphorylation of MAPK”; in experiment [2] (H1299 and NCI-H23 cells), “little effect”.
Turning to `O=C(NOC[C@H](O)CO)c1ccc(F)c(F)c1Nc1ccc(I)cc1F` [PD0325901, (R)—N-(2,3-dihydroxypropoxy)-3,4-difluoro-2-(2-fluoro-4-iodophenylamino)benzamide, reference compound], the cell growth result is given as “five of them were sensitive to PD0325901 inhibition” in experiment [3] (7 NSCLC cell lines); “intermediate response” in experiment [3] (BxPC3 and Panc-1); “showed less response” in experiment [3] (H460 and H1650); “sensitive to PD0325901 as a single agent” in experiment [3] (MiaPaCa2 and Su86.86).
For “(16Z,24Z,26Z,28Z)-1,18-dihydroxy-12-[1-(4-hydroxy-3-methoxycyclohexyl)propan-2-yl]-19-methoxy-15,17,21,23,29,35-hexamethyl-30-(5-methylthiophen-2-yl)-11,36-dioxa-4-azatricyclo[30.3.1.0̂ {4,9}]hexatriaconta-16,24,26,28-tetraene-2,3,10,14,20-pentone [rapamycin, reference compound]”, the “phosphorylation of S6K” value in experiment [4] was “inhibited phosphorylation of S6K”. The AKT phosphorylation result in experiment [4] (all cell lines tested) is “induced AKT phosphorylation in all cell lines tested”. In addition, the cell growth entry in experiment [5] (rapamycin, colon cancer cell lines) was “most colon cancer cell line tested did not respond well to rapamycin”; in experiment [5] (single agent, SJSA-1 cells), “did not respond”.
On to “SD008: hIGF-1R-Fc mutant S257F (Table 20), S258F (Table 17)”, for which, in experiment [6] (KD relative to WT hIGF-1R-Fc), the C06 binding result is on record as “NE (No effect (NE): measured KD within 2.5-fold of WT hIGF-1R-Fc)”, the C03 binding entry is recorded as “NE (No effect (NE): measured KD within 2.5-fold of WT hIGF-1R-Fc)” and the G11 binding result is on record as “W (Weak (W): measured KD between 2.5-10-fold higher than WT)”. The P1E2 binding result in experiment [6] (P1E2 antibody, KD relative to WT hIGF-1R-Fc) was “W (Weak (W): measured KD between 2.5-10-fold higher than WT)”. Also, the “loss in affinity for M14-G11 Fab based on the measured KD” value in experiment [6] (mutant versus wild-type) was “approximately 3 fold”. For the same compound, the αIR3 binding entry in experiment [6] (αIR3 antibody, KD relative to WT hIGF-1R-Fc) was “NE (No effect (NE): measured KD within 2.5-fold of WT hIGF-1R-Fc)”. The “Biacore Relative RUmax” value in experiment [7] came to 1.5.
Take SD005: hIGF-1R-Fc mutant A217T: in experiment [6] (KD relative to WT hIGF-1R-Fc), the C06 binding entry is “NE (No effect (NE): measured KD within 2.5-fold of WT hIGF-1R-Fc)”, the C03 binding result is given as “NE (No effect (NE): measured KD within 2.5-fold of WT hIGF-1R-Fc)” and the G11 binding result is given as “NE (No effect (NE): measured KD within 2.5-fold of WT hIGF-1R-Fc)”. The “Biacore Relative RUmax” value in experiment [7] is recorded as 0.9.

Values taken from US20090291088A1, “THERAPEUTIC COMBINATIONS OF ANTI-IGF-1R ANTIBODIES AND OTHER COMPOUNDS” (Biogen Idec MA Inc., priority 2008, published 2009).
